Results: patent publication US10456434B2, “Extracts obtained from cell line cultures from plants belonging to the Oleaceae family (e.g. Syringa vulgaris), their preparation and use” (CRODA ITALIANA S. P. A., priority 2005, dated 2019)

Key:
tyrosinase [1] = experiment: Tyrosinase inhibition, oxidation of L-tyrosine to L-DOPA; type: biochemical; conditions: 250 μg/ml
Excerpt: (§1) The enzyme tyrosinase catalyses the reactions leading to melanin biosynthesis from tyrosine. […] Substances inhibiting tyrosinase activity produce clearing/bleaching effect on the skin, since they block melanin synthesis. The method used to determine the inhibition of tyrosinase activity in the oxidation reaction of L-tyrosine to L-DOPA is that described in Kim et al. […] Biol. Pharm. Bull. 28(2), 323-327, 2005). The method applied for determination of the inhibition of tyrosinase activity in the conversion of L-DOPA to DOPAquinone is that described in Masamoto et al. (Mushroom tyrosinase inhibitory activity of esculetin isolated from seeds of Euphorbia lathyris L. Biosci. Biotechnol. Biochem., 67(3), 631-634, 2003).

tyrosinase [2] = experiment: Tyrosinase inhibition, conversion of L-DOPA to DOPAquinone; type: biochemical, Mushroom; conditions: 100 μg/ml
Excerpt: as §1

A549 cells = experiment: Oxidative stress (ROS, DCF fluorescence) in A549 cell cultures; type: cell-based, human; conditions: 1 mM, A549, galactose oxidative stress
Protocol: 10×10^5 A549 cells (ATCC-CCL195) have been seeded into wells with 3 ml of DMEM/medium (HAM'S F12K) with 10% FCS and incubated at 37° C. in a 5% CO2, water vapour saturated atmosphere. After 24 hours the culture medium is replaced by medium supplemented with 5.55 mM galactose, which is left in contact with the cells for 20 hours. The medium is once again replaced with medium containing galactose in the presence or absence of the test compound. After 5 hours, quantitative measurement of the ROSs is performed by washing the cells with phosphate buffer and then incubating them with 30 μM DCF-DA in buffer solution. At the end of a 15 minute incubation, excess DCF-DA is removed from the cells by washing, prior to measuring the fluorescence emitted.
Antioxidant activity measurements are performed using a (Hitachi F3010) spectrophotometer with excitation at 488 nm and measuring emission at 525 nm, and values are expressed in pmoles, by extrapolation from the calibration curve constructed using known quantities of DCF, in relation to total cellular protein. Values are thus expressed in % ages with respect to the ROS, content of the cells not subjected to oxidative stress, to which are assigned a value of 100.
Syringa vulgaris Extracts 1 and 2 and ascorbic acid have been dissolved in phosphate buffer.

[3] = Superoxide anion chemiluminescent assay (hypoxanthine/xanthine oxidase); type: biochemical; conditions: mean of 6 independent assays
Excerpt: (§2) The superoxide anion has been measured by a chemiluminescent assay based on the hypoxanthine (HPX)/xanthine oxidase (XOD) reaction using the Lumimax Superoxide Anion Detection Kit (Stratagene, La Jolla, Calif., USA) and following the manufacturer's instructions. Hydroxyl radical scavenger activity has been measured by means of the Fenton reaction for the production of hydroxyl radicals and chemiluminescent dosage (using a Victor^3 chemiluminometer, Wallac, Finland) with luminol. Peroxynitrite ions have been determined by means of dosage with a spontaneous generator of peroxynitrites (3-morpholinosidnonimine hydrochloride; SIN-1) and a stable reagent for the nitroxyl ions (2-(4-carboxyphenyl)-4,4,5,5-tetramethylimidazoline-1-oxyl-3-oxide potassium salt PTIO spin trap) then dosed by means of electron spin resonance (ESR) using a. Nippon Denshi JES-FR30.
(§3) Extract 1 and Extract 2 listed in Table are derived from Syringa vulgaris cell cultures. […] The results are expressed as the concentration inhibiting 50% of activity (IC50). The values reported are the means of 6 independent assays.

[4] = Hydroxyl radical scavenger activity (Fenton reaction, luminol chemiluminescence); type: biochemical; conditions: mean of 6 independent assays
Excerpt: as §2, with “Syringa vulgaris Extracts 1 and 2, prepared as described in examples 1 and 2, have been used to assess in vitro antioxidant action with specific oxygen radical generating systems such as the superoxide anion (O2^−), the hydroxyl radical (HO), the peroxynitrite radical (ONOO^−) and the inhibition of lipid peroxidation. The” for “The”, “JES-FR30. […].” for “JES-FR30.”
Extract 1 and Extract 2 listed in Table are derived from Syringa vulgaris cell cultures. In said extracts, verbascoside is present at 0.82% and 35% by weight respectively. […]

[5] = Peroxynitrite assay (SIN-1, PTIO spin trap, ESR); type: biochemical; conditions: mean of 6 independent assays
Excerpt: as §2, §3

| SMILES | Test L-tyrosine-DOPA inhibitory activity (%) (tyrosinase [1]) | Test LDOPA-DOPAquinone inhibitory activity (%) (tyrosinase [2]) | also measured |
| --- | --- | --- | --- |
| Oc1cccc(O)c1 [Resorcinol, reference compound] | 56.9% | 0% | – |
| O=C1O[C@H]([C@@H](O)CO)C(O)=C1O [Ascorbic acid, reference compound] | – | – | ROS level (%) (A549 cells): 62.91 ± 3.82 % |
| O=c1cc(CO)occ1O [Kojic acid, reference compound] | 94.1% | 35% | – |
| O=C1c2c(O)cccc2C([C@@H]2O[C@H](CO)[C@@H](O)[C@H](O)[C@H]2O)c2cc(CO)cc(O)c21 (some centres unmarked) [Aloin, reference compound] | – | – | Superoxide radical (IC50) [3]: 7.6 µg/mL; Hydroxyl radial (IC50) [4]: 2.9 µg/mL; Peroxynitrite radical (IC50) [5]: 12.3 µg/mL |
